Entries after “also recorded” stand apart in the source; their conditions may differ. Where two headings read alike, the source gives them in different places. Each block holds one compound with its values, some of them ahead of it.
How the values were obtained:
bovine trypsin = target: T1, bovine trypsin (Bos taurus, UniProt P00760); assay: PAINS assay: non-specific inhibition of trypsin; assay type: biochemical; conditions: 1x and 10x the PDE5 IC50 (3 and 7 also 50x, 250x); luteolin 50, 100, 250 μM
T1 construct: purchased Sigma-Aldrich T1426
T1 sequence (P00760 24-246): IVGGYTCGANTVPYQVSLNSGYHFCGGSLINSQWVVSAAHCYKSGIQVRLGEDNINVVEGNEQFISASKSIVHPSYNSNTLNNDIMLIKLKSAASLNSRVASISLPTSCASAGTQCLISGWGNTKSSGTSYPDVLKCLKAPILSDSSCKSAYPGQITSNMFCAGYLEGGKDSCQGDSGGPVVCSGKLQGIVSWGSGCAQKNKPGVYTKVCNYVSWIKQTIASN
Procedure: In assay buffer (50 mM Tris-HCl, 20 mM CaCl2, pH 8.19 with or without 0.5% igepal), 0.002 mg freshly made trypsin is incubated with drugs for 5 minutes at 25 °C. 1 mM of substrate (Nα-benzoyl-L-arginine 4-nitroanilide hydrochloride, Sigma-Aldrich, B3133) is added to start the reaction. Final reaction volume is 100 μl. Product formation is monitored by increasing absorbance at 410 nm at 25 °C for 30 minutes in kinetic mode using a SpectraMax M5 plate reader (Molecular Devices). All values were measured in duplicate.

[1] = target: purified recombinant human PDE5 (Homo sapiens, UniProt O76074); assay: in vitro PDE5 inhibition assay measuring GMP production from cGMP (HPLC-UV-MS); assay type: biochemical; conditions: for Fold improved potency (fold change in IC50 compared to icariin): relative to icariin; for fold increase in potency compared to the corresponding unglycosylated analog: 3 vs 6, 5 vs 8
Procedure: STRENDA guidelines were considered in the description of the following enzyme activity assays. PDE5 inhibition and kinetics assays were carried out according to the method of Kincaid and Manganiello [31] and Dell’Agli et al. 1 nM recombinant human PDE5 (catalytic domain consisting of amino acids 537–875, Abcam, ab125581) was pre-incubated with PDE5 inhibitors (synthesized in-house as described above or purchased from Selleck Chemicals) in 40 mM tris-hydrochloric acid, pH 7.8, containing 10 mM MgCl2. […]. PDE5 inhibitors were added to each reaction using a Hewlett-Packard D300 Digital Dispenser (Tecan). Maximum DMSO concentration was 0.1% of the final reaction volume for all samples. After incubation at 25 °C for 5 minutes to allow interaction between PDE5 and drugs, the reaction was started with the addition of 0.3 μM cGMP (Enzo Life Sciences, Inc.) and incubated at 25 °C for 15 minutes. The final reaction volume was 100 μL. Reactions were stopped with the addition of 100 μL of 0.1 M HCl and neutralized by adding 0.1 M NaOH until the pH was 7. […] The amount of GMP produced was measured by HPLC-UV-MS as described in the general procedures. Reaction mixture components were separated with a ramp gradient of solvent A and B run at a flow rate of 0.5 mL/min as follows: 0–4 minutes 0% B, 4–7 minutes 0–95% B, 7–8 minutes 95% B, 8–11.1 minutes 0% B. GMP was measured using selected reaction monitoring in positive mode for a centroid center mass of 152.
A calibration curve using known concentrations of GMP was generated using the HPLC-UV-MS method described above to quantify the absolute amount of GMP in each reaction (S13 Fig). The linear range was from 5.9 nM to 3 μM. The limit of detection (LOD), defined as the lowest concentration producing a detectable peak above background, was 0.1 nM. The lower limit of quantification (LLOQ), defined as the lowest concentration used to generate a standard curve with r^2 > 0.95, was 5.9 nM. The upper limit of quantification (ULOQ), defined as the highest concentration used to generate a standard curve with r^2 > 0.95, was 3 μM. A GMP calibration curve was generated with each individual run of the HPLC-UV-MS.
To measure the IC50 as a result of treatment with each icariin analog, the in vitro inhibition enzyme assay as described above was performed, and GMP levels were normalized to no-drug controls and multiplied by 100 to obtain the percent PDE5 activity. IC50 mean ± SEM values were determined by nonlinear-regression fitting of the percent PDE5 activity data using the [inhibitor] vs response–variable slope (four parameters) equation in Prism (version 7.0a and version 8). Top value was constrained to 100, all other parameters were unconstrained. To obtain the dose-response curves for visual confirmation of the best-fit line, we executed a nonlinear regression fitting using the log(inhibitor) vs. response—variable slope (four parameters) equation in Prism. […] AICc analysis (built into Prism) was used to confirm the best-fitting inhibition model. […] Inhibition models were also compared via visual inspection of the fit of the calculated curves on the Michaelis-Menten plots.

human PDE5 = conditions: PDE5, competitive inhibitors; cited from earlier work
[2] = mitochondrial viability assay with resazurin; assay type: cell-based, human; conditions: human, 0.01–10 μM; for viability at 3 days: marked reduction in at least one cell line; for viability at 3 days, 10 μM: four cell lines, even at the highest concentration tested (10 μM)
Procedure: The human cell lines SH-SY5Y (SY5Y, ATCC CRL-2266), SK-MEL-5 (SKMEL-5, ATCC HTB-70), and NCI-H187 (H187, ATCC CRL-5804) were cultured in RPMI medium supplemented with 10% FBS and no antibiotics. These three cell lines were generously provided by the laboratory of Susan Lindquist via Luke Whitesell (currently at the University of Toronto, Toronto, ON, Canada). BJ-hTERT (described in [27], generously provided by Robert Weinberg, Whitehead Institute, Cambridge MA, USA) was cultured in 4:1 DMEM:M199 medium supplemented with 15% FBS and no antibiotics. All cell lines were grown and assayed at 37 °C, 5% CO2. All cell lines were screened for mycoplasma contamination by PCR (Mycoscope Detection Kit, Fisher Scientific) before use in assays.
For viability assays, cells were plated in black, clear bottom 384-well tissue culture-treated plates (Corning) and incubated overnight in the media described above but supplemented with 50 U/mL penicillin-streptomycin antibiotic (Life Technologies). Then, DMSO (no drug controls) and PDE5 inhibitors (0.01–10 μM; synthesized as described above or purchased from Selleck Chemicals) were added using a Hewlett-Packard D300 Digital Dispenser (Tecan) and incubated for 3 days. Maximum DMSO concentration was normalized to 0.1% of the total well volume for all wells. Resazurin (R & D Systems) was diluted 1:20 into each well and incubated for up to 4 hours. Fluorescence was read in a Tecan plate reader (excitation = 570 nm, emission = 585 nm). Wells treated with PDE5 inhibitors were normalized against control wells treated with DMSO to measure percent mitochondrial viability (100 = no effect on mitochondrial viability).

recombinant human PDE5 = recombinant human PDE5 (Homo sapiens, UniProt O76074); assay: in vitro PDE5 kinetics assay (nonlinear regression, AICc model comparison); assay type: biochemical
Procedure: guidelines were considered in the description of the following enzyme activity assays. […] For kinetics assays, 0.015, 0.05, and 0.2 μM of compounds 3 and 7 were used. […] Maximum DMSO concentration was 0.1% of the final reaction volume for all samples. […] The final reaction volume was 100 μL. Reactions were stopped with the addition of 100 μL of 0.1 M HCl and neutralized by adding 0.1 M NaOH until the pH was 7. […] Reaction mixture components were separated with a ramp gradient of solvent A and B run at a flow rate of 0.5 mL/min as follows: 0-4 minutes 0% B, 4-7 minutes 0-95% B, 7-8 minutes 95% B, 8-11.1 minutes 0% B. GMP was measured using selected reaction monitoring in positive mode for a centroid center mass of 152. […] Top value was constrained to 100, all other parameters were unconstrained. To obtain the dose-response curves for visual confirmation of the best-fit line, we executed a nonlinear regression fitting using the log(inhibitor) vs. response-variable slope (four parameters) equation in Prism. […] AICc analysis (built into Prism) was used to confirm the best-fitting inhibition model. […] Inhibition models were also compared via visual inspection of the fit of the calculated curves on the Michaelis-Menten plots.

[3] = target: T2, partially purified recombinant human PDE6C (Homo sapiens, UniProt P51160); assay: PDE6C inhibition assay (GMP production); assay type: biochemical
T2 construct: partially purified recombinant full-length human PDE6C; purchased SB Drug Discovery; host or cells: insect cells
T2 sequence (P51160 whole entry): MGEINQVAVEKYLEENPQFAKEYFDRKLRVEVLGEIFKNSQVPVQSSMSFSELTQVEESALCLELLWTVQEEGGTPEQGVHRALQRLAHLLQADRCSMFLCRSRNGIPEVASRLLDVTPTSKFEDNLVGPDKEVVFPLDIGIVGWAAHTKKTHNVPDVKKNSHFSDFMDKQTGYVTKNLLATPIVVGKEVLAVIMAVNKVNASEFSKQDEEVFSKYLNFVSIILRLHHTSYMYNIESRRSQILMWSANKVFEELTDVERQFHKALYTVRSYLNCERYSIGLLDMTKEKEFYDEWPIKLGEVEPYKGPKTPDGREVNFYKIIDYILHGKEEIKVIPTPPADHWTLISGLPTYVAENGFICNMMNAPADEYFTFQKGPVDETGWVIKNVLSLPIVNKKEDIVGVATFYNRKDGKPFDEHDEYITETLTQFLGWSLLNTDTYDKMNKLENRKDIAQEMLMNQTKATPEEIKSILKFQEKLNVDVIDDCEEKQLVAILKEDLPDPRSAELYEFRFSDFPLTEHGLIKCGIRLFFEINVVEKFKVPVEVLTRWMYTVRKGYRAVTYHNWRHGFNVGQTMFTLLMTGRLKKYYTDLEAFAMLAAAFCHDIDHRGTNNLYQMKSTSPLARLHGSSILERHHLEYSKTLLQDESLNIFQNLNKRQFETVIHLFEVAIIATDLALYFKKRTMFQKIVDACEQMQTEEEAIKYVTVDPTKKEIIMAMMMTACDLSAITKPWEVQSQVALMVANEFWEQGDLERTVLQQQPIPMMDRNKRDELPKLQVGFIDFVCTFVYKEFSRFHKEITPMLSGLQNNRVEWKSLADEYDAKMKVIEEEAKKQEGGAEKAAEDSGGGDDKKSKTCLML
Procedure: PDE6C inhibition was measured using the same method as described for PDE5 with modifications. […] The final reaction volume was 50 μL. […] Reactions were stopped as described above for PDE5 enzyme assays, and GMP was quantified as described above. […] The amount of GMP produced in these samples was subtracted from all samples before normalizing against untreated controls.

BJ-hTERT cells = assay: cellular GMP levels after inhibitor treatment; assay type: cell-based, human; conditions: 20 μM inhibitor, 1 hour; mean ± SEM; p<0.001
Procedure: For assaying PDE5 inhibitor effects on GMP levels in a cell line, BJ-hTERT cells were plated in 6-well plates (Corning) in the media described above. When cells were 80% confluent, fresh, pre-warmed media with DMSO (untreated controls) or 20 μM sildenafil, 3, or 7 was added and incubated for 1 hour. Maximum DMSO concentration in all samples was 0.2% of the total well volume. Cells were washed once with cold 0.9% NaCl. 800 μL of 80:20 methanol:water spiked with 500 nM isotopically labeled amino acids as internal standards was added while cells were on dry ice. Cells were detached with a cell scraper. Extracts were vortexed for 10 minutes and centrifuged at maximum speed at 4 °C to remove debris. Extracts were dried down in a vacuum dryer and stored at -80 °C. An additional sample was reserved for visual inspection of cell health by confocal light microscopy and for cell counting with a hemocytometer. Three independent assays were conducted in total, with 1–2 replicates per assay. To analyze GMP levels, samples were reconstituted in 50 μL LC-MS grade water and analyzed by HPLC-UV-MS as described in the general procedures and for enzyme inhibition and kinetics assays. The amino acid standards were analyzed in full scan positive mode with mass windows m/z 50–800. GMP peak areas were normalized to the peak area of the internal standard ^13C4, ^15N-threonine or ^13C6, ^15N3-histidine to account for variations in extraction or resuspension volume. The peak areas were then normalized to the average GMP peak area in undrugged controls and multiplied by 100 to obtain the percent GMP.

PDE6 isoforms = tested on: PDE6 isoforms; set-up: method as in PMID 16780568, PMID 16123402; conditions: cited from earlier work
[4] = 1 nM PDE5 catalytic domain, 0.3 μM cGMP, 25 °C, 15 min, mean of at least three replicates ± SEM, read-out: IC50

IC50 [1]: 1800 ± 800 nM | Fold improved potency (fold change in IC50 compared to icariin) [1]: 3 fold
Compound: COc1ccc(-c2oc3c(CC=C(C)C)c(O)cc(O)c3c(=O)c2O)cc1 [Compound 9, Icaritin]
inhibition of trypsin activity (bovine trypsin): statistically significant inhibition of trypsin activity (p<0.05)

IC50 [1, 4]: 1500 ± 600 nM | Fold improved potency (fold change in IC50 compared to icariin) [1]: 4 fold
Compound: COc1ccc(-c2oc3c(CC=C(C)C)c(O)cc(O)c3c(=O)c2OCC(C)O)cc1 (stereo not drawn) [Compound 8, 3-O-(2-Hydroxypropyl)-Icaritin]

Compound: O=c1cc(-c2ccc(O)c(O)c2)oc2cc(O)cc(O)c12 [luteolin, reference compound]
inhibition of trypsin activity (bovine trypsin): statistically significant inhibition of trypsin activity (p<0.001)

IC50 [1, 4]: 800 ± 500 nM | fold decrease in potency compared to the corresponding unglycosylated compound 7 ([1]; 4 vs 7): 6 fold | Fold improved potency (fold change in IC50 compared to icariin) [1]: 8 fold
Compound: COc1ccc(-c2oc3c(CC=C(C)C)c(OC4OC(CO)C(O)C(O)C4O)cc(O)c3c(=O)c2OCCCO)cc1 (stereo not drawn) [Compound 4, 3-O-(3-Hydroxypropyl)-Icariside I]
viability at 3 days [2]: ≤ 70%

Preferred model (recombinant human PDE5; AICc comparison of competitive vs noncompetitive inhibition): Competitive inhibition | Preferred model (recombinant human PDE5; AICc comparison of competitive vs uncompetitive inhibition): Competitive inhibition | probability that the competitive inhibition model is correct (recombinant human PDE5; AICc, compared to a noncompetitive or uncompetitive model): > 99% | Probability it is correct (competitive inhibition) (recombinant human PDE5; AICc, competitive vs noncompetitive inhibition): 99.97% | Probability it is correct (competitive inhibition) (recombinant human PDE5; AICc, competitive vs uncompetitive inhibition): >99.99% | specificity for PDE5 over PDE6C [3]: shows specificity for PDE5 over PDE6C | fold increase in potency compared to the corresponding unglycosylated analog [1]: 5 fold
Compound: COc1ccc(-c2oc3c(CC=C(C)C)c(OC4OC(CO)C(O)C(O)C4O)cc(O)c3c(=O)c2OCCO)cc1 (stereo not drawn) [Compound 3, 3-O-(2-Hydroxyethyl)-Icariside I]
viability at 3 days, 10 μM [2]: > 70% | mode of inhibition (recombinant human PDE5; Lineweaver-Burk plot and AICc analysis): competitive inhibitor; also recorded: inhibits PDE5 competitively | PDE6C inhibition, statistical significance ([3]; at 50x the PDE5 IC50, vs theoretical uninhibited mean of 100%): do not show any statistically significant PDE6C inhibition | cellular GMP concentration, % of the GMP concentration in untreated control cells (BJ-hTERT cells): 9 ± 0.6%

fold increase in potency compared to the corresponding unglycosylated analog [1]: 3 fold | Fold improved potency (fold change in IC50 compared to icariin) [1]: 12 fold
Compound: COc1ccc(-c2oc3c(CC=C(C)C)c(OC4OC(CO)C(O)C(O)C4O)cc(O)c3c(=O)c2OCC(C)O)cc1 (stereo not drawn) [Compound 5, 3-O-(2-Hydroxypropyl)-Icariside I]
viability at 3 days, 10 μM [2]: > 70%

IC50 [1, 4]: 2100 ± 800 nM | Fold improved potency (fold change in IC50 compared to icariin) [1]: 3 fold
Compound: COc1ccc(-c2oc3c(CC=C(C)C)c(O[C@@H]4O[C@H](CO)[C@@H](O)[C@H](O)[C@H]4O)cc(O)c3c(=O)c2O)cc1 [Compound 2, Icariside I]
viability at 3 days [2]: ≤ 70%

Compound: CCCc1nc(C)c2c(=O)[nH]c(-c3cc(S(=O)(=O)N4CCN(CC)CC4)ccc3OCC)nn12 [vardenafil]
inhibition of PDE6 isoforms (PDE6 isoforms): show inhibition of PDE6 isoforms | IC50 (human PDE5): […]
